We go through seven compounds from patent publication US11767314B2, “Bioenergetic nicotinic acid glycerol esters, compositions and methods of using same” (Conopco, Inc., priority 2018, dated 2023).

Structures are written as SMILES. Entries after “also recorded” stand apart in the source; their conditions may differ.

The subject of the test is Human dermal fibroblasts F5140616B1. In words: Effect of NAEs on AMP/ATP Ratio in Fibroblast Cells (metabolites by LC/MS). Format: cell-based. Also on record: AMP/ATP Ratio: scale not given here. As to conditions: for AMP/ATP Ratio / Increase Over Vehicle (AMP/ATP ratio): 500 uM, fibroblasts treated every other day for 6 days; for AMP/ATP Ratio: vehicle (ethanol) 367; for Increase Over Vehicle (AMP/ATP ratio): vs ethanol vehicle; for AMP/ATP ratio, result in words: fibroblast cells, 500 uM where stated. As for the experimental part:
The experiments in this Example 2 were conducted in the following manner.
Method for Treatment of Fibroblasts with Bioenergetic Compounds
Human dermal fibroblasts F5140616B1 (MatTek Corporation, Ashland, Mass.) were derived from a donor and cultured in DMEM media (ThermoFisher Cat #31053-036) supplemented with FBS (Hyclone/Fisher Scientific Cat #SH30007103), glutamine (ThermoFisher Cat #35050-61) and sodium pyruvate (ThermoFisher Cat #11360-070). At the third passage, the cells were detached from the culture vessels using Trypsin/EDTA (T/E) solution (0.25 mg/mL) (Lonza Cat #CC-5012) and used for experimentation.
Cells were treated with the compounds every other day for a total of 6 days. Treatment involved removal of the spent media+compounds and replenishment with fresh media+compounds. At the end of the experiment, the cells were detached from the culture vessels using the standard procedure outlined above. The cells were centrifuged and then washed 1× with Dulbecco's PBS with no calcium or magnesium (ThermoFisher Cat #14190144) and then accurate cell counts were taken using a Scepter cell counter (EMD Millipore). The cells were then split equally into 2 Eppendorf tubes, and centrifuged. Excess PBS was then removed from the resulting cell pellets. The pellets were then immediately frozen on dry ice and sent to an external laboratory for analysis of metabolites by LC/MS.

Regarding `CC(=O)O[C@@H]1[C@@H](CO)OC([n+]2cccc(C(N)=O)c2)[C@@H]1OC(C)=O.O=S(=O)([O-])C(F)(F)F` (stereo partly drawn) [JR1, 3-carbamoyl-1-((3R,4R,5R)-3,4-diacetoxy-5-(hydroxymethyl)tetrahydrofuran-2-yl)pyridin-1-ium trifluoromethanesulfonate], the “AMP/ATP Ratio” value is given as 756 and the “Increase Over Vehicle (AMP/ATP ratio)” value was determined as 106%.
In the same order, the values of `CCCC(=O)O[C@@H]1[C@@H](CO)OC([n+]2cccc(C(N)=O)c2)[C@@H]1OC(=O)CCC.O=S(=O)([O-])C(F)(F)F` (stereo partly drawn) [JR2, 1-((3R,4R,5R)-3,4-bis(butyryloxy)-5-(hydroxymethyl)tetrahydrofuran-2-yl)-3-carbamoylpyridin-1-ium trifluoromethanesulfonate] are 919 and 150%.
Take `CC(=O)O[C@@H]1[C@@H](CO)OC(N2C=CCC(C(N)=O)=C2)[C@@H]1OC(C)=O` (stereo partly drawn) [JR3, (3R,4R,5R)-2-(3-carbamoylpyridin-1(4H)-yl)-5-(hydroxymethyl) tetrahydrofuran-3,4-diyl diacetate]: the “AMP/ATP Ratio” value was found to be 1231 and the “Increase Over Vehicle (AMP/ATP ratio)” value is on record as 235%.
With `NC(=O)c1cccnc1` [Nicotinamide, reference compound], the “AMP/ATP Ratio” value is 529; the “Increase Over Vehicle (AMP/ATP ratio)” value was found to be 44%; the “AMP/ATP ratio, result in words” value is listed as “somewhat elevated levels of AMP/ATP ratio over control vehicle”.
Consider `CC1(C)OCC(COC(=O)c2cccnc2)O1` (stereo not shown) [VC1, (2,2-dimethyl-1,3-dioxolan-4-yl)methyl nicotinate], for which the “AMP/ATP Ratio” value is 1010; the “Increase Over Vehicle (AMP/ATP ratio)” value was 175%; the “AMP/ATP ratio, result in words” value was “increased AMP/ATP ratio in testing; also recorded: notably increase the AMP/ATP ratio; also recorded: significantly elevated levels of AMP/ATP ratio over both, control vehicle and nicotinamide; also recorded: increase in the levels of AMP/ATP ratio; also recorded: demonstrably increased AMP/ATP ratio”.
With `O=C(OCC(O)CO)c1cccnc1` (stereo not shown) [VC2, 2,3-dihydroxypropyl nicotinate], the “AMP/ATP ratio, result in words” value is “increased AMP/ATP ratio in testing; also recorded: notably increase the AMP/ATP ratio; also recorded: increase in the levels of AMP/ATP ratio; also recorded: demonstrably increased AMP/ATP ratio”.
Regarding `CC1(C)OCC(OC(=O)c2cccnc2)CO1` [VC4, 2,2-dimethyl-1,3-dioxan-5-yl nicotinate], the “AMP/ATP Ratio” value amounted to 941; the “Increase Over Vehicle (AMP/ATP ratio)” value stood at 156%; the “AMP/ATP ratio, result in words” value is “increased AMP/ATP ratio in testing; also recorded: notably increase the AMP/ATP ratio; also recorded: significantly elevated levels of AMP/ATP ratio over both, control vehicle and nicotinamide; also recorded: demonstrably increased AMP/ATP ratio”.
